One molecule from US9889099B2, “Method and composition for enhancing milk production” (LAND O'LAKES, INC., priority 1999, dated 2018) can be followed below.

The test system of the assay is lactating cows. As to the kind of experiment: Example 1: feeding lactating cows control ration plus about 100 g sorbitol per day, 28 day test period. Format: in vivo, Holstein cows. The text has this: In this example, twenty Holstein cows averaging about thirty days in milk each, and thus in early lactation, were arranged in a randomized complete block design. Ten of the twenty cows were orally fed a control ration, and the other ten cows were orally fed a test ration that consisted of the control ration plus about 100 grams of sorbitol per day per cow. The cows were blocked by parity milk production, based upon the level of milk production by individual cows, after being in milk for fifteen to twenty days. After being blocked by parity milk production, the cows were randomly allotted to the control ration feeding or to the test ration feeding. The components of the control ration used in this example are shown in Table 1: The control ration was placed in the feeding troughs of the cattle once daily in the morning. When the test ration was to be provided to the test cattle, sorbitol was top dressed and lightly mixed into the control ration in the feeding trough of each cow being supplied with the test ration dosage of about 100 grams of sorbitol per cow per day, about one hour after the control ration was placed in the feeding trough. Then, the control ration and the test ration were lightly mixed in front of the cows six times per day to encourage additional feed ingestion by the cattle. Leftover rations from the previous day's feeding were collected and weighed from each feeding trough prior to feeding the test cattle the next day. The cows received a sufficient amount of the control ration to ensure that at least about ten weight percent, based upon the amount of control ration provided at the beginning of each day, remained per day for each test cow. The amount of sorbitol that was top dressed in the control ration to form the test ration was adjusted upward to account for the excess of control ration provided to ensure that the cows ingested the test ration dosage of about 100 grams of sorbitol per cow per day. Feed refusals were measured daily, and water was supplied ad libitum. […] Each cow was milked three times daily and the weight of produced milk was recorded at each milking. The milk was sampled once per day (⅓ of the sample volume from each milking) and was analyzed for protein, fat, lactose, and total solids, in accordance with the property determination and characterization techniques presented above. The milk production and milk component data was analyzed using the general linear model (GLM) statistical procedure of SAS® statistical analysis software for a randomized, complete block design that included both the particular feed regimen and the week of the test period in the model statement. […] Additionally, all data was analyzed to determine the mean of the data for each variable under consideration over the entire experimental period. […]

Consider `OC[C@@H](O)[C@@H](O)[C@H](O)[C@@H](O)CO` [sorbitol], for which, under “about 100 g sorbitol/day/cow mixed with control ration, mean over 28 days, control 47.2, P 0.54”, the “Dry Matter Intake” value worked out at 45.6 pounds/day/cow. In addition, for the setting “about 100 g sorbitol/day/cow mixed with control ration, mean over 28 days, control 88.9, P 0.02”, the “Milk Production” value amounted to 93.5 pounds/day/cow. Where the note is “about 100 g sorbitol/day/cow, P 0.54”, the “difference in dry matter intake between control ration and test ration (FIG. 1)” value is “statistically insignificant”. Moreover, the “daily milk production at each weekly data point versus control cows (FIG. 2)” value (about 100 g sorbitol/day/cow, weekly means over four weeks) is reported as “significant increase”.
